Experimental data: patent US20240124491A1, “METHODS AND COMPOUNDS FOR TREATING FRIEDREICH'S ATAXIA” (Design Therapeutics, Inc., priority 2021, published 2024)

Tested on: human FXN
Test: EC50 assay: FXN mRNA expression by qRT-PCR in GM15850 cells after 48 hrs compound treatment
Assay type: cell-based
Conditions: Homo sapiens, 48 hrs incubation, hFXN expression normalized to hGAPDH (qRT-PCR), read-out: EC50 WT (nM, 48 hr)
Method: Cell culture: Cells were cultured in RPMI1640 medium+15% FBS. Cells were maintained at a density between 2e5/mL and 1e6/mL. Cells were centrifuged, resuspended in fresh medium, counted and plated at 150,000 cells per well in 100 uL in a non-coated, flat bottom tissue culture plate.
Compound treatment: 10 mM stock solution of FA GeneTAC was diluted 1:10 in DMSO followed by a 1:100 dilution in growth medium. Working solution was then further diluted to 10× desired final concentration of 150 nM. Compound was then diluted at a 1:3 ratio into growth medium containing 0.01% DMSO. 5-point, 3-fold dose response curve was generated. 11 μL of 1OX compound was added to wells containing 100 μL cell suspension of GM15850. 11 μL growth medium containing 0.01% DMSO was added to all wells not treated with FA GeneTAC. Cells were allowed to incubate for 48 hrs prior to cell lysis using guanidine isothiocyanate solution.
RNA isolation: Total RNA was isolated and purified in 384-well column filter plates using chaotropic salt.
qRT-PCR: qRT-PCR reactions were assembled using AgPath-ID reagents (Thermo Fisher) using 6 uL mastermix and 4 μL RNA. qRT-PCR TaqMan primer probe sets against human FXN (Assay ID Hs01075496_m1) and human GAPDH (Assay ID Hs00266705_g1) were used to measure the intended targets. qRT-PCR was run on the ThermoFisher QuantStudio 6 PRO instrument using the manufacturer's recommended cycling conditions.
Data analysis: qPCR data was analyzed using Thermo Fisher Design and Analysis software. Data was exported to Excel and hFXN expression was normalized to hGAPDH expression
A<100 nM; B is 100 nM to 500 nM; C>500 nM.

`Cc1sc2c(c1C)C(c1ccc(Cl)cc1)=N[C@@H](CC(=O)Nc1ccc(N3CCN(CCOCCOCCOCCOCCOCCOCCOCCNC(=O)CCNC(=O)c4nc(NC(=O)CCNC(=O)c5cc(NC(=O)c6nc(NC(=O)CCNC(=O)c7cc(NC(=O)c8nccn8C)cn7C)cn6C)cn5C)cn4C)CC3)cc1)c1nnc(C)n1-2` [Compound 2] and `Cc1sc2c(c1C)C(c1ccc(Cl)cc1)=N[C@@H](CC(=O)Nc1ccc(N3CCN(CCOCCOCCOCCOCCOCCOCCNC(=O)CCNC(=O)c4nc(NC(=O)CCNC(=O)c5cc(NC(=O)c6nc(NC(=O)CCNC(=O)c7cc(NC(=O)c8nccn8C)cn7C)cn6C)cn5C)cn4C)CC3)cc1)c1nnc(C)n1-2` [Compound 3] cannot be ordered by EC50: less than 100 nM for the first, less than 100 nM for the second.

First: Cc1sc2c(c1C)C(c1ccc(Cl)cc1)=N[C@@H](CC(=O)Nc1ccc(N3CCN(CCOCCOCCOCCOCCOCCNC(=O)CCNC(=O)c4nc(NC(=O)CCNC(=O)c5cc(NC(=O)c6nc(NC(=O)CCNC(=O)c7cc(NC(=O)c8nccn8C)cn7C)cn6C)cn5C)cn4C)CC3)cc1)c1nnc(C)n1-2 [Compound 4]
Second: Cc1sc2c(c1C)C(c1ccc(Cl)cc1)=N[C@@H](CC(=O)Nc1ccc(N3CCN(CC4CCN(CCOCCOCCOCCOCCOCCNC(=O)CCNC(=O)c5nc(NC(=O)CCNC(=O)c6cc(NC(=O)c7nc(NC(=O)CCNC(=O)c8cc(NC(=O)c9nccn9C)cn8C)cn7C)cn6C)cn5C)CC4)CC3)cc1)c1nnc(C)n1-2 [Compound 5]
The EC50 of the first is lower: less than 100 nM for the first, 100 to 500 nM for the second.

`Cc1sc2c(c1C)C(c1ccc(Cl)cc1)=N[C@@H](CC(=O)Nc1ccc(N3CCN(CC4CCN(CCOCCOCCOCCOCCNC(=O)CCNC(=O)c5nc(NC(=O)CCNC(=O)c6cc(NC(=O)c7nc(NC(=O)CCNC(=O)c8cc(NC(=O)c9nccn9C)cn8C)cn7C)cn6C)cn5C)CC4)CC3)cc1)c1nnc(C)n1-2` [Compound 6] and `Cc1sc2c(c1C)C(c1ccc(Cl)cc1)=N[C@@H](CC(=O)Nc1ccc(N3CCN(CC4CCN(CCOCCOCCOCCNC(=O)CCNC(=O)c5nc(NC(=O)CCNC(=O)c6cc(NC(=O)c7nc(NC(=O)CCNC(=O)c8cc(NC(=O)c9nccn9C)cn8C)cn7C)cn6C)cn5C)CC4)CC3)cc1)c1nnc(C)n1-2` [Compound 7] fall in the same range of EC50: 100 to 500 nM for the first, 100 to 500 nM for the second.

`Cc1sc2c(c1C)C(c1ccc(Cl)cc1)=N[C@@H](CC(=O)Nc1ccc(N3CCC(N4CCN(CCOCCOCCOCCOCCOCCOCCNC(=O)CCNC(=O)c5nc(NC(=O)CCNC(=O)c6cc(NC(=O)c7nc(NC(=O)CCNC(=O)c8cc(NC(=O)c9nccn9C)cn8C)cn7C)cn6C)cn5C)CC4)CC3)cc1)c1nnc(C)n1-2` [Compound 8] and `Cc1sc2c(c1C)C(c1ccc(Cl)cc1)=N[C@@H](CC(=O)Nc1ccc(N3CCC(N4CCN(CCOCCOCCOCCOCCOCCNC(=O)CCNC(=O)c5nc(NC(=O)CCNC(=O)c6cc(NC(=O)c7nc(NC(=O)CCNC(=O)c8cc(NC(=O)c9nccn9C)cn8C)cn7C)cn6C)cn5C)CC4)CC3)cc1)c1nnc(C)n1-2` [Compound 9] cannot be ordered by EC50: less than 100 nM for the first, less than 100 nM for the second.

`Cc1sc2c(c1C)C(c1ccc(Cl)cc1)=N[C@@H](CC(=O)Nc1ccc(N3CCC(N4CCN(CCOCCOCCOCCOCCNC(=O)CCNC(=O)c5nc(NC(=O)CCNC(=O)c6cc(NC(=O)c7nc(NC(=O)CCNC(=O)c8cc(NC(=O)c9nccn9C)cn8C)cn7C)cn6C)cn5C)CC4)CC3)cc1)c1nnc(C)n1-2` [Compound 10] and `Cc1sc2c(c1C)C(c1ccc(Cl)cc1)=N[C@@H](CC(=O)Nc1ccc(C#CC3CCN(CCOCCOCCOCCOCCNC(=O)CCNC(=O)c4nc(NC(=O)CCNC(=O)c5cc(NC(=O)c6nc(NC(=O)CCNC(=O)c7cc(NC(=O)c8nccn8C)cn7C)cn6C)cn5C)cn4C)CC3)cc1)c1nnc(C)n1-2` [Compound 13] cannot be ordered by EC50: less than 100 nM for the first, less than 100 nM for the second.

`Cc1sc2c(c1C)C(c1ccc(Cl)cc1)=N[C@@H](CC(=O)Nc1ccc(C#CC3CCN(CCOCCOCCOCCOCCOCCOCCNC(=O)CCNC(=O)c4nc(NC(=O)CCNC(=O)c5cc(NC(=O)c6nc(NC(=O)CCNC(=O)c7cc(NC(=O)c8nccn8C)cn7C)cn6C)cn5C)cn4C)CC3)cc1)c1nnc(C)n1-2` [Compound 11] and `Cc1sc2c(c1C)C(c1ccc(Cl)cc1)=N[C@@H](CC(=O)Nc1ccc(C#CC3CCN(CCOCCOCCOCCOCCOCCNC(=O)CCNC(=O)c4nc(NC(=O)CCNC(=O)c5cc(NC(=O)c6nc(NC(=O)CCNC(=O)c7cc(NC(=O)c8nccn8C)cn7C)cn6C)cn5C)cn4C)CC3)cc1)c1nnc(C)n1-2` [Compound 12] cannot be ordered by EC50: less than 100 nM for the first, less than 100 nM for the second.

First: Cc1sc2c(c1C)C(c1ccc(Cl)cc1)=N[C@@H](CC(=O)Nc1ccc(C#CC#CCNCCOCCOCCOCCOCCOCCOCCNC(=O)CCNC(=O)c3nc(NC(=O)CCNC(=O)c4cc(NC(=O)c5nc(NC(=O)CCNC(=O)c6cc(NC(=O)c7nccn7C)cn6C)cn5C)cn4C)cn3C)cc1)c1nnc(C)n1-2 [Compound 14]
Second: Cc1sc2c(c1C)C(c1ccc(Cl)cc1)=N[C@@H](CC(=O)Nc1ccc(C#CC#CCNCCOCCOCCOCCOCCOCCNC(=O)CCNC(=O)c3nc(NC(=O)CCNC(=O)c4cc(NC(=O)c5nc(NC(=O)CCNC(=O)c6cc(NC(=O)c7nccn7C)cn6C)cn5C)cn4C)cn3C)cc1)c1nnc(C)n1-2 [Compound 15]
The EC50 of the first is higher: 100 to 500 nM for the first, less than 100 nM for the second. The second is the more potent here.

`Cc1sc2c(c1C)C(c1ccc(Cl)cc1)=N[C@@H](CC(=O)Nc1ccc(C#CC#CCNCCOCCOCCOCCOCCNC(=O)CCNC(=O)c3nc(NC(=O)CCNC(=O)c4cc(NC(=O)c5nc(NC(=O)CCNC(=O)c6cc(NC(=O)c7nccn7C)cn6C)cn5C)cn4C)cn3C)cc1)c1nnc(C)n1-2` [Compound 16] and `Cc1sc2c(c1C)C(c1ccc(Cl)cc1)=N[C@@H](CC(=O)N[C@H]1CC[C@H](N(C)CCOCCOCCOCCOCCOCCOCCOCCOCCNC(=O)CCNC(=O)c3nc(NC(=O)CCNC(=O)c4cc(NC(=O)c5nc(NC(=O)CCNC(=O)c6cc(NC(=O)c7nccn7C)cn6C)cn5C)cn4C)cn3C)CC1)c1nnc(C)n1-2` [Compound 22] cannot be ordered by EC50: less than 100 nM for the first, less than 100 nM for the second.

`Cc1sc2c(c1C)C(c1ccc(Cl)cc1)=N[C@@H](CC(=O)N1CCN(CC3CCN(CCOCCOCCOCCOCCOCCN4CCC(CN5CCN(C(=O)CCNC(=O)c6nc(NC(=O)CCNC(=O)c7cc(NC(=O)c8nc(NC(=O)CCNC(=O)c9cc(NC(=O)c%10nccn%10C)cn9C)cn8C)cn7C)cn6C)CC5)CC4)CC3)CC1)c1nnc(C)n1-2` [Compound 18] and `Cc1sc2c(c1C)C(c1ccc(Cl)cc1)=N[C@@H](CC(=O)N1CCN(CC3CCN(CCOCCOCCOCCOCCN4CCC(CN5CCN(C(=O)CCNC(=O)c6nc(NC(=O)CCNC(=O)c7cc(NC(=O)c8nc(NC(=O)CCNC(=O)c9cc(NC(=O)c%10nccn%10C)cn9C)cn8C)cn7C)cn6C)CC5)CC4)CC3)CC1)c1nnc(C)n1-2` [Compound 19] cannot be ordered by EC50: greater than 500 nM for the first, greater than 500 nM for the second.

`Cc1sc2c(c1C)C(c1ccc(Cl)cc1)=N[C@@H](CC(=O)N1CCN(CC3CCN(CCOCCOCCOCCN4CCC(CN5CCN(C(=O)CCNC(=O)c6nc(NC(=O)CCNC(=O)c7cc(NC(=O)c8nc(NC(=O)CCNC(=O)c9cc(NC(=O)c%10nccn%10C)cn9C)cn8C)cn7C)cn6C)CC5)CC4)CC3)CC1)c1nnc(C)n1-2` [Compound 20] and `Cc1sc2c(c1C)C(c1ccc(Cl)cc1)=N[C@@H](CC(=O)N1CCN(CCOCCOCCOCCN3CCN(CCOCCOCCOCCNC(=O)CCNC(=O)c4nc(NC(=O)CCNC(=O)c5cc(NC(=O)c6nc(NC(=O)CCNC(=O)c7cc(NC(=O)c8nccn8C)cn7C)cn6C)cn5C)cn4C)CC3)CC1)c1nnc(C)n1-2` [Compound 27] cannot be ordered by EC50: greater than 500 nM for the first, greater than 500 nM for the second.

First: Cc1sc2c(c1C)C(c1ccc(Cl)cc1)=N[C@@H](CC(=O)N[C@H]1CC[C@H](N(C)CCOCCOCCOCCN3CCN(CCOCCOCCOCCNC(=O)CCNC(=O)c4nc(NC(=O)CCNC(=O)c5cc(NC(=O)c6nc(NC(=O)CCNC(=O)c7cc(NC(=O)c8nccn8C)cn7C)cn6C)cn5C)cn4C)CC3)CC1)c1nnc(C)n1-2 [Compound 21]
Second: Cc1sc2c(c1C)C(c1ccc(Cl)cc1)=N[C@@H](CC(=O)NC1CCN(CCOCCOCCOCCN3CCN(CCOCCOCCOCCNC(=O)CCNC(=O)c4nc(NC(=O)CCNC(=O)c5cc(NC(=O)c6nc(NC(=O)CCNC(=O)c7cc(NC(=O)c8nccn8C)cn7C)cn6C)cn5C)cn4C)CC3)CC1)c1nnc(C)n1-2 [Compound 23]
The EC50 of the first is higher: greater than 500 nM for the first, 100 to 500 nM for the second. The second is the more potent here.

First: COc1ccc2c(c1)C(c1ccc(Cl)cc1)=N[C@@H](CC(=O)NC1CCN(CCOCCOCCOCCN3CCN(CCOCCOCCOCCNC(=O)CCNC(=O)c4nc(NC(=O)CCNC(=O)c5cc(NC(=O)c6nc(NC(=O)CCNC(=O)c7cc(NC(=O)c8nccn8C)cn7C)cn6C)cn5C)cn4C)CC3)CC1)c1nnc(C)n1-2 [Compound 24]
Second: COc1ccc2c(c1)C(c1ccc(Cl)cc1)=N[C@@H](CC(=O)N1CCN(CCOCCOCCOCCN3CCN(CCOCCOCCOCCNC(=O)CCNC(=O)c4nc(NC(=O)CCNC(=O)c5cc(NC(=O)c6nc(NC(=O)CCNC(=O)c7cc(NC(=O)c8nccn8C)cn7C)cn6C)cn5C)cn4C)CC3)CC1)c1nnc(C)n1-2 [Compound 28]
The EC50 of the first is lower: 100 to 500 nM for the first, greater than 500 nM for the second.

`Cc1sc2c(c1C)C(c1ccc(Cl)cc1)=N[C@@H](CC(=O)N1CC3(CCN(CCOCCOCCOCCN4CCN(CCOCCOCCOCCNC(=O)CCNC(=O)c5nc(NC(=O)CCNC(=O)c6cc(NC(=O)c7nc(NC(=O)CCNC(=O)c8cc(NC(=O)c9nccn9C)cn8C)cn7C)cn6C)cn5C)CC4)CC3)C1)c1nnc(C)n1-2` [Compound 25] and `COc1ccc2c(c1)C(c1ccc(Cl)cc1)=N[C@@H](CC(=O)N1CC3(CCN(CCOCCOCCOCCN4CCN(CCOCCOCCOCCNC(=O)CCNC(=O)c5nc(NC(=O)CCNC(=O)c6cc(NC(=O)c7nc(NC(=O)CCNC(=O)c8cc(NC(=O)c9nccn9C)cn8C)cn7C)cn6C)cn5C)CC4)CC3)C1)c1nnc(C)n1-2` [Compound 26] cannot be ordered by EC50: greater than 500 nM for the first, greater than 500 nM for the second.
